Experimental data taken from publication PMC11472310, “Distinctive Immune Signatures Driven by Structural Alterations in Desmuramylpeptide NOD2 Agonists” (Journal of Medicinal Chemistry, 2024).
Where two headings read alike, the source gives them in different places.

Molecular target: T1, hNOD2 (Homo sapiens, UniProt Q9HC29)
T1 construct: host or cells: HEK-Blue NOD2 cells (HEK293)
Assay: HEK-Blue NOD2 cell line reporter assay (NF-κB-inducible SEAP)
Format: cell-based
Method: To assess the NOD2 agonistic potential of the synthesized desmuramylpeptides at a cellular level, we employed the HEK-Blue NOD2 cell line reporter assay, a validated and commercially available method. All synthesized compounds were evaluated for their dose-dependent activities to establish their EC50 values.
The HEK-Blue NOD1 and NOD2 cell line reporter assay was generated from HEK293 cells through cotransfection of the hNOD1 or hNOD2 gene, respectively, along with an NF-κB-inducible secreted embryonic alkaline phosphatase (SEAP) reporter gene. Upon activation of NOD1 or NOD2, NF-κB triggers the production of SEAP, which can be quantitatively measured colorimetrically. […] After 18 h of incubation at 37 °C with 5% CO2, SEAP activity was measured spectrophotometrically by absorbance at 630 nm (BioTek Synergy microplate reader; Winooski, VT, USA). EC50 values were determined using Prism software (version 9; GraphPad Software, CA, USA). Each experiment was conducted in duplicate and repeated in at least two independent biological replicates.

[1] = HEK-Blue NOD2 cells, 18 h, NF-κB transcriptional activity (SEAP), read-out: EC50 (nM), NOD2 agonistic activity

T1 sequence (Q9HC29 whole entry): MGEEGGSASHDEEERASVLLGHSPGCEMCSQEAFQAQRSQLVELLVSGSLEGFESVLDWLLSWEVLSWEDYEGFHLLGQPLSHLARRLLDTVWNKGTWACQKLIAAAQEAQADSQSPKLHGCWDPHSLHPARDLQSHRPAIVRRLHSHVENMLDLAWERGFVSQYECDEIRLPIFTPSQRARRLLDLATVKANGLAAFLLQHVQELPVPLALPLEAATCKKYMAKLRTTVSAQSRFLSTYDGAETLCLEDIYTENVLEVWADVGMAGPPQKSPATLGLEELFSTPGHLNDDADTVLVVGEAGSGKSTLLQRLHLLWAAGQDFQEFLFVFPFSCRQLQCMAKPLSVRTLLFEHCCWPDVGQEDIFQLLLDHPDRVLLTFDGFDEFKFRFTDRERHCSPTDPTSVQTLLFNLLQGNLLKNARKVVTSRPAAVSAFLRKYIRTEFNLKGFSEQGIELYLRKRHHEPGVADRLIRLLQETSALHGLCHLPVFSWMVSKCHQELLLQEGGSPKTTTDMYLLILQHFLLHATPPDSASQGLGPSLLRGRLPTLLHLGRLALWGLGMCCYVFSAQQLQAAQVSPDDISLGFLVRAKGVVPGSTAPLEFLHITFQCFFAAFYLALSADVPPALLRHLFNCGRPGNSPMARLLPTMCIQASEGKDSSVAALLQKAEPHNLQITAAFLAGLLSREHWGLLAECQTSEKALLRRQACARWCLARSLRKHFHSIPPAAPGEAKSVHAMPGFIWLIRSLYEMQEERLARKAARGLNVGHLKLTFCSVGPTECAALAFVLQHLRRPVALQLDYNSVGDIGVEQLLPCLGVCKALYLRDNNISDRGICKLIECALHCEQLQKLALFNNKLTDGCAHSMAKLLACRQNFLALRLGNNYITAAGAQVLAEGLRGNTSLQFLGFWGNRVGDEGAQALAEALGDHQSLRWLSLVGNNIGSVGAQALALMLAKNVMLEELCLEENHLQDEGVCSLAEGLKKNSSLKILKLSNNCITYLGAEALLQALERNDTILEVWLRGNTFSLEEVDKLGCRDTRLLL

Structure (SMILES)	EC50 [1] [nM]	further results
CCCCCC(=O)Oc1ccc(/C=C/C(=O)NCC(=O)N[C@H](C(=O)N[C@H](CCC(=O)OCC)C(=O)OCC)C(C)C)cc1OC [Compound 4, Diethyl ((E)-3-(4-(Hexanoyloxy)-3-methoxyphenyl)acryloyl)glycyl-L-valyl-D-glutamate]	20.2 ± 1.2	
CCCCCCCC(=O)Oc1ccc(/C=C/C(=O)NCC(=O)N[C@H](C(=O)N[C@H](CCC(=O)OCC)C(=O)OCC)C(C)C)cc1OC [Compound 5, Diethyl ((E)-3-(3-Methoxy-4-(octanoyloxy)phenyl)acryloyl)glycyl-L-valyl-D-glutamate]	25.5 ± 2.2	
CCCCCCCCC(=O)Oc1ccc(/C=C/C(=O)NCC(=O)N[C@H](C(=O)N[C@H](CCC(=O)OCC)C(=O)OCC)C(C)C)cc1OC [Compound 6]	24.8 ± 2.3	
CCCCCCCCCC(=O)Oc1ccc(/C=C/C(=O)NCC(=O)N[C@H](C(=O)N[C@H](CCC(=O)OCC)C(=O)OCC)C(C)C)cc1OC [Compound 7, Diethyl ((E)-3-(4-(Decanoyloxy)-3-methoxyphenyl)acryloyl)glycyl-L-valyl-D-glutamate]	30.6 ± 5.5	
CCCCCCCCCCCCCC(=O)Oc1ccc(/C=C/C(=O)NCC(=O)N[C@H](C(=O)N[C@H](CCC(=O)OCC)C(=O)OCC)C(C)C)cc1OC [Compound 8, Diethyl ((E)-3-(3-Methoxy-4-(tetradecanoyloxy)phenyl)acryloyl)glycyl-L-valyl-D-glutamate]	69.5 ± 5.1	
CCCCCCCCCCCCCCCCCC(=O)Oc1ccc(/C=C/C(=O)NCC(=O)N[C@H](C(=O)N[C@H](CCC(=O)OCC)C(=O)OCC)C(C)C)cc1OC [Compound 10]	7200 ± 2640	EC50 (HEK-Blue NOD2 cells, 18 h, read-out: EC50, NOD2 agonistic activity (text)): 7200 nM
CCCCCC(C)C(=O)Oc1ccc(/C=C/C(=O)NCC(=O)N[C@H](C(=O)N[C@H](CCC(=O)OCC)C(=O)OCC)C(C)C)cc1OC (stereo partly drawn) [Compound 11, Diethyl ((E)-3-(3-Methoxy-4-((2-methylheptanoyl)oxy)phenyl)acryloyl)glycyl-L-valyl-D-glutamate]	11.7 ± 2.8	
CCCCC(CC)C(=O)Oc1ccc(/C=C/C(=O)NCC(=O)N[C@H](C(=O)N[C@H](CCC(=O)OCC)C(=O)OCC)C(C)C)cc1OC (stereo partly drawn) [Compound 12, Diethyl ((E)-3-(4-((2-ethylhexanoyl)oxy)-3-methoxyphenyl)acryloyl)glycyl-L-valyl-D-glutamate]	21.6 ± 6.5	
CCCCCCC(CC)C(=O)Oc1ccc(/C=C/C(=O)NCC(=O)N[C@H](C(=O)N[C@H](CCC(=O)OCC)C(=O)OCC)C(C)C)cc1OC (stereo partly drawn) [Compound 13, Diethyl ((E)-3-(4-((2-Ethyloctanoyl)oxy)-3-methoxyphenyl)acryloyl)glycyl-L-valyl-D-glutamate]	9.7	EC50 (supplementary SMILES csv, read-out: HEK-blue hNOD2 EC50): 9.7 nM
CCCCCC(CCC)C(=O)Oc1ccc(/C=C/C(=O)NCC(=O)N[C@H](C(=O)N[C@H](CCC(=O)OCC)C(=O)OCC)C(C)C)cc1OC (stereo partly drawn) [Compound 14, Diethyl ((E)-3-(3-Methoxy-4-((2-propylheptanoyl)oxy)phenyl)acryloyl)glycyl-L-valyl-D-glutamate]	19.4 ± 3.6	
CCCCC(CCCC)C(=O)Oc1ccc(/C=C/C(=O)NCC(=O)N[C@H](C(=O)N[C@H](CCC(=O)OCC)C(=O)OCC)C(C)C)cc1OC [Compound 15, Diethyl ((E)-3-(4-((2-Butylhexanoyl)oxy)-3-methoxyphenyl)acryloyl)glycyl-L-valyl-D-glutamate]	22.4 ± 5.9	
CCOC(=O)CC[C@@H](NC(=O)[C@@H](NC(=O)CNC(=O)/C=C/c1ccc(OC(=O)CCCC2CCCCC2)c(OC)c1)C(C)C)C(=O)OCC [Compound 16, Diethyl ((E)-3-(4-((4-Cyclohexylbutanoyl)oxy)-3-methoxyphenyl)acryloyl)glycyl-L-valyl-D-glutamate]	25.8 ± 3.3	
CCCCCC(CCCCC)C(=O)Oc1ccc(/C=C/C(=O)NCC(=O)N[C@H](C(=O)N[C@H](CCC(=O)OCC)C(=O)OCC)C(C)C)cc1OC [Compound 17, Diethyl ((E)-3-(3-Methoxy-4-((2-pentylheptanoyl)oxy)phenyl)acryloyl)glycyl-L-valyl-D-glutamate]	88.6 ± 10.5	drop of activity compared to 2 (EC50 ratio versus 2 (lauroyl)): 9 factor
